Our source for the IC50 and Activity values is ChEMBL document CHEMBL5620389, “Development of diphenylmethylpiperazine hybrids of chloroquinoline and triazolopyrimidine using Petasis reaction as new cysteine proteases inhibitors for malaria therapeutics” (Eur J Med Chem, 2023).

Data set [1] deals with Plasmodium falciparum. In words: Antimalarial activity against Plasmodium falciparum K1. In kind it is functional, organism-based.
Data set [2] concerns Plasmodium falciparum. In words: Antimalarial activity against Plasmodium falciparum 3D7. It is filed as functional, organism-based.
The subject of data set [3] is Plasmodium falciparum. In words: Antimalarial activity against chloroquine-sensitive Plasmodium falciparum 3D7 infected in RBC incubated for 50 hrs by SYBR green I staining based microplate reader assay. The following applies: 3D7, Erythrocyte. In kind it is functional, organism-based.
The next data set has as its system Erythrocyte. In words: Hemolytic activity in human RBC at 100 uM incubated for 2 hrs by microplate reader analysis. It is filed as toxicity, cell-based.
The test system of data set [4] is Plasmodium falciparum. As to the kind of experiment: Antiplasmodial activity against synchronized Plasmodium falciparum 3D7 assessed as arrest in parasite development at trophozoite stage at 3 times IC50 after 24 to 48 hrs by Giesma-staining based light microscopic analysis. In kind it is functional, organism-based. The following applies: time 24-48 hrs.
In data set [5] the test system is Plasmodium falciparum. In words: Antimalarial activity against chloroquine-sensitive Plasmodium falciparum 3D7 incubated for 72 hrs by MSF assay. It is filed as functional, organism-based. The following applies: 3D7, 72 h.
The subject of data set [6] is Plasmodium falciparum. In words: Antimalarial activity against chloroquine-sensitive Plasmodium falciparum K1 incubated for 72 hrs by MSF assay. In kind it is functional, organism-based. As to conditions: K1, 72 h.
Data set [7] deals with Plasmodium yoelii. As to the kind of experiment: Antimalarial activity against Plasmodium yoelii N67 infected in Swiss mouse assessed as parasitemia suppression at 12.5 mg/kg/day, po measured on day 4. In kind it is functional. The following applies: time 4 day.
Data set [8] concerns Plasmodium yoelii. In words: Antimalarial activity against Plasmodium yoelii N67 infected in Swiss mouse assessed as curative rate at 12.5 mg/kg/day, po measured on day 28. The following applies: time 28 day. In kind it is functional.
In the next data set the target is T1, Falcipain-3 (Plasmodium falciparum 3D7, UniProt Q8IIL0).
T1 sequence (Q8IIL0 whole entry): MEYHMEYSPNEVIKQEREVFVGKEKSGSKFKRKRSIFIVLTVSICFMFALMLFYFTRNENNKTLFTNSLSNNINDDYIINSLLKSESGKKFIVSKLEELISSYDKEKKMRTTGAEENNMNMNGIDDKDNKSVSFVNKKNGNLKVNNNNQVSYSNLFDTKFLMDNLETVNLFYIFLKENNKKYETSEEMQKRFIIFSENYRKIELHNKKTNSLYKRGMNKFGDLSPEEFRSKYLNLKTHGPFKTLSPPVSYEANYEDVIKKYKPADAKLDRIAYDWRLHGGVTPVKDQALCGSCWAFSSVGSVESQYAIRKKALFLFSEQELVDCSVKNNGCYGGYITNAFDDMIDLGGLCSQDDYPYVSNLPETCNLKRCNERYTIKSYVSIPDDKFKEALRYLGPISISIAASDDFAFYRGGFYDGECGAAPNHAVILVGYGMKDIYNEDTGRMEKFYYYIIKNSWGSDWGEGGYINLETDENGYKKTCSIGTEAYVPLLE
As to the kind of experiment: Inhibition of Plasmodium falciparum FP3 using Z-Leu-Arg-AMC as substrate preincubated for 30 mins followed by substrate addition and measured for 30 mins by spectrofluorometer analysis.

In data set [9] the test system is Plasmodium falciparum. As to the kind of experiment: Antimalarial activity against chloroquine-resistant Plasmodium falciparum W2 infected in RBC incubated for 50 hrs by SYBR green I staining based microplate reader assay. It is filed as functional, organism-based. The following applies: W2, Erythrocyte.
A short description of data set [10]: Cytotoxicity against African green monkey Vero cells at 1000 uM. As to conditions: chlorocebus sabaeus. In kind it is toxicity, cell-based.
Data set [11] is described as follows: Cytotoxicity against human […] cells incubated for 24 hrs by MTT assay. It is filed as toxicity, cell-based. In general terms: Tetrazolium assays rely on reduction of a dye to a coloured formazan, in cell work by metabolically active cells.
Another data set deals with T2, Falcipain 2 (Plasmodium falciparum, UniProt Q9N6S8).
T2 sequence (Q9N6S8 whole entry): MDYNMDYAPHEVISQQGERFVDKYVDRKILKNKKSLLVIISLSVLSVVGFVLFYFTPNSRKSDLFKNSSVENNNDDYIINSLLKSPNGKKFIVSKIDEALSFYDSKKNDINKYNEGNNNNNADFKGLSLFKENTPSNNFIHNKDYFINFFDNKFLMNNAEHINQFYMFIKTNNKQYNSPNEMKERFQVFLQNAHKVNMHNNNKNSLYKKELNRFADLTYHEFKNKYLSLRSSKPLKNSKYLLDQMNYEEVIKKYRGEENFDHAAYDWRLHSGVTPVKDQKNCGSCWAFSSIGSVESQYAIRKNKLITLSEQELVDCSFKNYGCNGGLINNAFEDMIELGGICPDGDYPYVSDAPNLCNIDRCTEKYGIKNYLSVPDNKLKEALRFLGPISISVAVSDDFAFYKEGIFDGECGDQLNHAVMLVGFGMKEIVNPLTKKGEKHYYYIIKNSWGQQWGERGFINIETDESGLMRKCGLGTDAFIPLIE
In words: Inhibition of Plasmodium falciparum FP2 using Z-Leu-Arg-AMC as substrate preincubated for 30 mins followed by substrate addition and measured for 30 mins by spectrofluorometer analysis.

Activity calls are given as the source filed them.

On to `CC(C)(C)NCc1ccc(Nc2ccnc3cc(Cl)ccc23)cc1O` [GSK-369796], for which the results for the IC50 in the data set on Plasmodium falciparum [1] and in the data set on Plasmodium falciparum [2] were 0.013 µM and 0.011 µM, respectively.

With `COc1cccc(C(c2ccc(C)cc2)N2CCN(c3ccnc4cc(Cl)ccc34)CC2)c1O` (stereo not drawn), inhibition in the data set on Plasmodium falciparum [3] was half-maximal at 1.65 µM (IC50). The Activity entry in the data set on Erythrocyte is recorded as “Toxic”. Besides, the outcome in the data set on Plasmodium falciparum [4] was Active.

As to `CCN1CCN(CC(CC(C)C)Nc2ccnc3cc(Cl)ccc23)CC1` (stereo not drawn), the IC50 (in general, the concentration that gives 50% inhibition) was determined as 0.057 µM in the data set on Plasmodium falciparum [5] and 0.0978 µM in the data set on Plasmodium falciparum [6]. For the same compound, the Activity in the data set on Plasmodium yoelii [7] and with Plasmodium yoelii [8] was 100% each time.

In the case of `COc1ccc(C(c2ccccc2O)N2CCN(c3ccnc4cc(Cl)ccc34)CC2)cc1` (stereo not drawn), in the data set with Plasmodium falciparum [3], the IC50 was determined as 1.62 µM. Further, in the data set on Erythrocyte, the Activity entry is “Toxic”.

Compound `Cc1cc(N2CCN(C(c3ccc(F)cc3)c3ccccc3O)CC2)n2ncnc2n1` (stereo not drawn) gave an IC50 in the data set on Plasmodium falciparum [3] of 34.3 µM. Moreover, the Activity result in the data set with Erythrocyte is on record as “Toxic”.

Turning to `CCN(CC)CCCC(C)Nc1ccnc2cc(Cl)ccc12` (stereo not drawn) [CHLOROQUINE], the Activity result in the data set with Erythrocyte was “Toxic”.

With `Cc1cc(N2CCN(C(c3ccc(F)c(F)c3)c3ccccc3O)CC2)n2ncnc2n1` (stereo not drawn), the IC50 in the data set on Plasmodium falciparum [3] was found to be 6.87 µM. Moreover, in the data set on Erythrocyte, the Activity result is “Toxic”.

In the data set with Plasmodium falciparum [3], `Oc1ccccc1C(c1ccc(C(F)(F)F)cc1)N1CCN(c2ccnc3cc(Cl)ccc23)CC1` (stereo not drawn) yielded an IC50 of 1.41 µM. The Activity result in the data set on Erythrocyte is reported as “Toxic”.

As to `Oc1ccccc1C(c1ccc(OC(F)(F)F)cc1)N1CCN(c2ccnc3cc(Cl)ccc23)CC1` (stereo not drawn), the IC50 against Falcipain-3 was 4.7 µM; in the data set on Plasmodium falciparum [9], 1.24 µM; with Plasmodium falciparum [3], 0.74 µM; against Falcipain 2, 4.8 µM. In addition, the Activity result is on record as “Non-Toxic” in data set [10] and “Toxic” in the data set on Erythrocyte. Further, the outcome with Plasmodium falciparum [4] was Active. The compound also registered an IC50 at 24 h in [11] of 104 µM.

`COc1cccc(C(c2ccc(C(F)(F)F)cc2)N2CCN(c3ccnc4cc(Cl)ccc34)CC2)c1O` (stereo not drawn): the IC50 came to 6.2 µM at Falcipain-3, 3.29 µM in the data set on Plasmodium falciparum [9], 0.53 µM with Plasmodium falciparum [3] and 5.4 µM at Falcipain 2. In addition, the Activity result in data set [10] is recorded as “Non-Toxic”; in the data set on Erythrocyte, “Toxic”. In addition, the outcome in the data set with Plasmodium falciparum [4] was Active. Besides, the IC50 at 24 h in data set [11] is 32.9 µM.

On to `Oc1ccccc1C(c1ccc(F)c(F)c1)N1CCN(c2ccnc3cc(Cl)ccc23)CC1` (stereo not drawn), for which the IC50 was determined as 4.9 µM against Falcipain-3, 1.05 µM in the data set with Plasmodium falciparum [9], 0.74 µM in the data set on Plasmodium falciparum [3] and 3.9 µM against Falcipain 2. For the same compound, the Activity result in [10] is on record as “Non-Toxic”; in the data set with Erythrocyte, “Toxic”. Moreover, the result with Plasmodium falciparum [4] was Active. It took 188 µM to reach half-maximal inhibition in data set [11] (IC50 at 24 h).

As for `COc1cccc(C(c2ccc(F)c(Cl)c2)N2CCN(c3ccnc4cc(Cl)ccc34)CC2)c1O` (stereo not drawn), the midpoint of inhibition in the data set on Plasmodium falciparum [3], the IC50, lay at 1.46 µM. Moreover, the Activity result with Erythrocyte was “Toxic”.

Consider `Cc1cc(N2CCN(C(c3ccc(Cl)c(Cl)c3)c3ccccc3O)CC2)n2ncnc2n1` (stereo not drawn), for which, in the data set with Plasmodium falciparum [3], the IC50 worked out at 3.33 µM. For the same compound, the Activity result in the data set with Erythrocyte is on record as “Toxic”.

As for `Oc1ccccc1C(c1ccc(F)c(Cl)c1)N1CCN(c2ccnc3cc(Cl)ccc23)CC1` (stereo not drawn), the IC50 came out at 10.1 µM at Falcipain-3, 0.46 µM in the data set with Plasmodium falciparum [9], 1.2 µM in the data set on Plasmodium falciparum [3] and 8.7 µM against Falcipain 2. For the same compound, the Activity result in data set [10] is “Non-Toxic”; in the data set on Erythrocyte, “Toxic”. In the data set with Plasmodium falciparum [4], the result was Active. The IC50 at 24 h in [11] is 139 µM.

`COc1ccc(C(c2ccccc2O)N2CCN(c3cc(C)nc4ncnn34)CC2)cc1` (stereo not drawn) came in with a half-inhibitory concentration (IC50) in the data set with Plasmodium falciparum [3] above 25 µM. The Activity entry in the data set on Erythrocyte is “Toxic”.

Turning to `Cc1ccc(C(c2ccccc2O)N2CCN(c3ccnc4cc(Cl)ccc34)CC2)cc1` (stereo not drawn), the IC50 on Falcipain-3 was determined as 6.7 µM; in the data set with Plasmodium falciparum [9], 1.28 µM; in the data set on Plasmodium falciparum [3], 1.06 µM; at Falcipain 2, 6.1 µM. The results for the Activity entry (in data set [10]; in the data set on Erythrocyte) were “Non-Toxic” and “Toxic”, respectively. In addition, the outcome with Plasmodium falciparum [4] was Active. Besides, the IC50 at 24 h in data set [11] was found to be 134 µM.

Take `COc1cccc(C(c2ccc(F)c(F)c2)N2CCN(c3ccnc4cc(Cl)ccc34)CC2)c1O` (stereo not drawn): the IC50 on Falcipain-3 amounted to 10.8 µM; in the data set with Plasmodium falciparum [9], 1.4 µM; with Plasmodium falciparum [3], 1.31 µM; at Falcipain 2, 10.4 µM. For the same compound, the Activity entry was “Non-Toxic” in data set [10] and “Toxic” in the data set with Erythrocyte. Also, the outcome in the data set with Plasmodium falciparum [4] was Active. Half-maximal inhibition in data set [11] (IC50 at 24 h) was put at 17.9 µM.

`COc1cccc(C(c2ccc(Cl)c(Cl)c2)N2CCN(c3ccnc4cc(Cl)ccc34)CC2)c1O` (stereo not drawn): the IC50 against Falcipain-3 worked out at 5.9 µM; in the data set on Plasmodium falciparum [9] it was 0.66 µM; in the data set on Plasmodium falciparum [3], 1.06 µM; against Falcipain 2, 4.6 µM. The Activity result is on record as “Non-Toxic” in [10] and “Toxic” with Erythrocyte. Also, the outcome in the data set on Plasmodium falciparum [4] was Active. The compound also yielded an IC50 at 24 h in [11] of 172 µM.

As for `Cc1ccc(C(c2ccccc2O)N2CCN(c3cc(C)nc4ncnn34)CC2)cc1` (stereo not drawn), the concentration for half-maximal inhibition (IC50) in the data set with Plasmodium falciparum [3] was above 25 µM. Moreover, the Activity entry in the data set with Erythrocyte is recorded as “Toxic”.

As to `COc1ccc(C(c2cccc(OC)c2O)N2CCN(c3ccnc4cc(Cl)ccc34)CC2)cc1` (stereo not drawn), the IC50 at Falcipain-3 was determined as 7.8 µM; in the data set on Plasmodium falciparum [9] it was 2.6 µM; with Plasmodium falciparum [3], 1.09 µM; against Falcipain 2, 7.1 µM. For the same compound, the values for the Activity entry (in data set [10]; in the data set with Erythrocyte) were “Non-Toxic” and “Toxic”, respectively. Also, in [11], the IC50 at 24 h was 214 µM.

Take `COc1cccc(C(c2ccc(OC(F)(F)F)cc2)N2CCN(c3ccnc4cc(Cl)ccc34)CC2)c1O` (stereo not drawn): half-maximal inhibition with Plasmodium falciparum [3] (IC50) required 1.47 µM. Besides, in the data set on Erythrocyte, the Activity entry is “Toxic”.

Compound `COc1cccc(C(c2ccc(F)cc2)N2CCN(c3ccnc4cc(Cl)ccc34)CC2)c1O` (stereo not drawn) gave an IC50 in the data set with Plasmodium falciparum [3] of 1.54 µM. Moreover, the Activity entry in the data set on Erythrocyte is reported as “Toxic”.
